According to US20250263370A1 (Tay Therapeutics Limited, priority 2022, published 2025):
Where “and” joins values, the source holds several entries; their conditions need not be identical. Identical values can stand only once. Like-named read-outs stand apart in the source and are kept apart here.

Assay: Pharmacokinetics and plasma concentration of Example 101 in Lewis rats after oral administration (CIA study)
Assay type: in vivo, Lewis rat
Details: for concentration at 21 day / concentration at 0.5 h / concentration at 1 h / concentration at 2 h / concentration at 4 h / concentration at 8 h / concentration at 10 h / concentration at 12 h / concentration at 14 h / concentration at 0.25 h / concentration at 24 h / AUC(0-inf) / AUC(0-t) / half-life / Cmax / MRT inf / Tmax: Lewis, rat, plasma; for AUC(0-inf) / AUC(0-t) / half-life / Cmax / MRT inf / Tmax: po; for Cmax: read-out: Cmax; for MRT inf: read-out: MRTInf—obs; for Tmax: read-out: Tmax
[1] = Lewis rats, oral, 10 mg/kg, day 20, mean
[2] = oral, 10 mg/kg, oral, day 0, 10 mg/kg, per test subject, read-out: Plasma concentration
[3] = oral, 10 mg/kg, oral, day 20, 10 mg/kg, per test subject, read-out: Plasma concentration
[4] = oral, 10 mg/kg, oral, day 0, 10 mg/kg, read-out: Mean Concentration
[5] = oral, 10 mg/kg, oral, day 20, 10 mg/kg, read-out: Mean Concentration
[6] = 10 mg/kg, Lewis rats, oral, 10 mg/kg, day 20, mean
[7] = 10 mg/kg, oral, day 0, 10 mg/kg, Mean

For CNC(=O)c1[nH]c(C(=O)NC2CCC2)cc1O[C@@H](C)c1ccccc1 (stereo in doubt) [Example 101, N^5-cyclobutyl-N^2-methyl-3-(1-phenylethoxy)-1H-pyrrole-2,5-dicarboxamide], the “Plasma concentration” value (Day 21, Group 5 (CIA), 3 mg/kg, per animal) was 37.5 ng/mL and 59.4 ng/mL and 64.9 ng/mL and 49.5 ng/mL and 65.2 ng/mL and 71.9 ng/mL and 69.6 ng/mL, the “Plasma concentration” value (Day 21, Group 6 (CIA), 10 mg/kg, per animal) was 270 ng/mL and 134 ng/mL and 209 ng/mL and 281 ng/mL and 251 ng/mL and 313 ng/mL and 175 ng/mL and 28.4 ng/mL and the “Plasma concentration” value (Day 21, Group 7 (CIA), 30 mg/kg, per animal) was 1620 ng/mL and 1260 ng/mL and 1430 ng/mL and 1220 ng/mL and 1350 ng/mL and 2000 ng/mL and 1440 ng/mL. The “day 20 plasma concentration versus dose” value (Lewis rats, oral administration) was “appeared to increase in a dose-dependent manner”, the AUClast/D [1] was 528 (ng·h/mL)/(mg/kg) and the “AUC—% Extrap—obs” value [1] was 1.11%. The “time at which plasma levels peaked after the second daily dose” value (Lewis rats, oral, second daily dose administered at 8 h) was 10 h, the concentration at 21 day (oral, 3 mg/kg, Day 21, Group 5 (CIA), 3 mg/kg, per animal, read-out: Plasma Concentration) was 54.9 ng/mL and the concentration at 21 day (oral, 3 mg/kg, Day 21, Group 5 (CIA), 3 mg/kg, read-out: Mean Plasma Concentration) was 59.1 ng/mL. It also gave a concentration at 21 day (oral, 10 mg/kg, Day 21, Group 6 (CIA), 10 mg/kg, read-out: Mean Plasma Concentration) of 208 ng/mL, a concentration at 0.5 h [2] of 738 ng/mL and a concentration at 1 h [2] of 1090 ng/mL. It also gave a concentration at 2 h [2] of 1110 ng/mL, a concentration at 4 h [2] of 1170 ng/mL and a concentration at 8 h [2] of 190 ng/mL. The concentration at 10 h [2] was 1880 ng/mL, the concentration at 12 h [2] was 772 ng/mL and the concentration at 14 h [2] was 324 ng/mL. For the same molecule, the concentration at 0.25 h [3] was 1260 ng/mL, the concentration at 0.5 h [3] was 1660 ng/mL and the concentration at 1 h [3] was 1600 ng/mL. For the same molecule, the concentration at 2 h [3] was 841 ng/mL, the concentration at 4 h [3] was 452 ng/mL and the concentration at 10 h [3] was 1170 ng/mL. For the same molecule, the concentration at 12 h [3] was 258 ng/mL, the concentration at 0.25 h [4] was 502 ng/mL and the concentration at 0.5 h [4] was 706 ng/mL. The concentration at 1 h [4] was 1270 ng/mL, the concentration at 2 h [4] was 1240 ng/mL and the concentration at 4 h [4] was 997 ng/mL. The concentration at 8 h [4] was 148 ng/mL, the concentration at 10 h [4] was 1930 ng/mL and the concentration at 12 h [4] was 799 ng/mL. It also gave a concentration at 14 h [4] of 439 ng/mL, a concentration at 24 h (oral, 10 mg/kg, oral, day 0, 10 mg/kg) of 57 ng/mL and a concentration at 0.25 h [5] of 1410 ng/mL. The concentration at 0.5 h [5] was 1650 ng/mL, the concentration at 1 h [5] was 1640 ng/mL and the concentration at 2 h [5] was 1140 ng/mL. The concentration at 4 h [5] was 494 ng/mL, the concentration at 8 h [5] was 169 ng/mL and the concentration at 10 h [5] was 1450 ng/mL. For the same molecule, the concentration at 12 h [5] was 406 ng/mL, the concentration at 14 h [5] was 138 ng/mL and the concentration at 24 h (oral, 10 mg/kg, oral, day 20, 10 mg/kg) was 25 ng/mL. The concentration at 21 day (oral, 30 mg/kg, Day 21, Group 7 (CIA), 30 mg/kg, per animal, read-out: Plasma Concentration) was 2290 ng/mL, the concentration at 21 day (oral, 30 mg/kg, Day 21, Group 7 (CIA), 30 mg/kg, read-out: Mean Plasma Concentration) was 1580 ng/mL and the AUC(0-inf) [6] was 10700 ng·h/mL. The AUC(0-t) [6] was 10600 ng·h/mL, the half-life [6] was 3.28 h and the Cmax [6] was 1710 ng/mL. It also gave an MRT inf [6] of 6.66 h, a Tmax [6] of 0.67 h and an AUC(0-inf) [7] of 15400 ng·h/mL. It also gave an AUC(0-t) [7] of 15000 ng·h/mL, a half-life [7] of 3.22 h and a Cmax [7] of 1980 ng/mL. It also gave an MRT inf [7] of 8.61 h, a Tmax [7] of 7.3 h and an AUC(0-inf) (10 mg/kg, oral, day 0, 10 mg/kg, per test subject) of 14300 ng·h/mL.
